Assay results taken from patent US20250263441A1 (Metanovas Biotech Inc., priority 2024, published 2025).
Where “and” joins values, the source holds several entries; their conditions need not be identical. Equal entries are not always repeated.

Assays:
Type in all cases: cell-based
[1] = system: Candida albicans (ATCC: 14053); assay: Inhibitory effect of AMP-33 on Candida albicans (viability, OD 630 nm); details: 8 μg/mL, 28 hours; repeated experiments
Experimental: (1) Candida albicans was inoculated into YM liquid medium and cultured overnight under aerobic conditions at 28° C. and […] on a shaker.
(2) 200 μL of YM liquid culture medium and a predetermined concentration of peptide AMP-33 were added to a 96-deep-well plate. Then, 10 μL of the Candida albicans solution was inoculated (mixed well before inoculation).
(§1) (3) After incubating at […] for 28 hours on a shaking table at 28° C., the turbidity of the bacterial solution was observed. A volume of 100 μL of the solution was taken, and the OD at 630 nm was measured using an enzyme-linked immunosorbent assay (ELISA) reader (after multiple blows and mixing).
(§2) [formula] • OD Measurement: OD value of the test peptide. • ODneg: OD value with no bacterial inoculation, containing only […] medium. • ODpos: OD value with bacterial inoculation and without inhibitors.

Propionibacterium acnes = assay: Minimum inhibitory concentration on Propionibacterium acnes (liquid culture); details: anaerobic, 37° C., 24 to 48 hours
Experimental: (§3) Primary screening of liquid culture: the peptides in Examples 1 to 2 were dissolved in pure water to a concentration of 100 μg/mL. Using a micropipette, 10 μL of the peptides were added to a new 96-well plate in order from left to right, starting from the second compartment. Positive and negative controls were established for use. The 96-well plates were arranged vertically, and the peptide concentrations in the control groups were the same as those of the antimicrobial peptides. The control groups included: pure water and bacteria, antimicrobial peptide FK13 and bacteria, antimicrobial peptide HPA3NT3 and bacteria, and ciprofloxacin and bacteria. An aseptic medium was used.
(§4) If a 96-deep-well plate was used to culture bacteria, an additional 100 μL of sterile medium was added to all wells.
Propionibacterium acnes was inoculated on an anaerobic blood agar plate, placed in an anaerobic bag, and incubated anaerobically at 37° C. for 48 hours. Propionibacterium acnes clones were then picked and incubated anaerobically in liquid anaerobic broth medium at 37° C. for an additional 48 hours. The bacterial concentration was measured and diluted to 107 CFU/mL with culture medium.
(§5) The prepared fresh bacterial suspension was diluted to 105 CFU/mL and added to the 96-well plate with 90 μL of the bacterial suspension per well. The plate was incubated at 37° C. with a normal oxygen concentration for 24 to 48 hours (Propionibacterium acnes was cultured anaerobically at 37° C. for 24 to 48 hours in an anaerobic bag). The absorbance at 630 nm was measured using a microplate reader, and the degree of turbidity was observed by the naked eye.
(§6) (iv) Repetition of Operations: The Operations in (iii) were Repeated Twice, and the Decision to Perform a Third Repetition was Based on the Reproducibility of the Experiment.

Streptococcus mutans = assay: Inhibitory effect of AMP-33 on Streptococcus mutans; details: 5 and 10 μg/mL, 16 hours
Experimental: (1) Streptococcus mutans was cultured to the logarithmic phase, then 5 mL of the bacterial solution was centrifuged at 5,000 g for 10 minutes. The organisms were resuspended in Brain-Heart Infusion (BHI) medium, and the concentration of the bacterial solution was adjusted to approximately 2×10^5 CFU/mL using pre-configured McClure's turbidimetric tubes.
(2) Streptococcus mutans was cultured in a microtiter plate (96 wells), and 50 μL of different AMP33 peptides were added (at concentrations of 5 and 10 μg/mL). Then, 100 μL of diluted Streptococcus mutans bacterial fluid was added, followed by 50 μL of BHI medium, resulting in a final concentration of 1×10^5 CFU/mL.
(3) A blank control was provided with equal amounts of medium solution and bacterial solution as that of the experimental group, with at least 3 replicates for each treatment group.
(4) The 96-well plate was placed in a bacterial incubator at 37° C. and incubated at 150 rpm for 16 hours.

[2] = system: Mouse macrophage RAW264.7 cells; assay: NO concentration after treatment of LPS-stimulated RAW264.7 cells; details: LPS 10 ng/ml, 24 hours, replicate experiments
Experimental: (1) Mouse macrophage RAW264.7 cells were cultured in DMEM supplemented with 10% fetal bovine serum (FBS) and 1% penicillin and streptomycin (P/S) at 37° C. in a 5% CO2 incubator.
(2) 5×10^4 mouse-derived RAW264.7 macrophages were placed in 12-well cell culture plates and cultured for 24 hours. Then, 20 μL of PBS (negative control), Dexamethasone (positive control), and the test peptide were added to the wells for incubation for 2 hours. Afterward, 10 ng/ml of lipopolysaccharide (LPS) was mixed with RAW264.7 cells and incubated for 24 hours.
(3) The supernatant was collected, and NO and IL-6/IL-1ß expression levels were measured using a commercial kit.

[3] = system: Escherichia coli (ATCC: 25922); assay: Inhibitory effect of AMP-33 on Escherichia coli (viability, OD 630 nm); details: for Viability of Escherichia coli: 24 hours, repeated experiments
Experimental: (1) Staphylococcus aureus and Escherichia coli were inoculated into LB liquid medium and cultured overnight under aerobic conditions at 37° C. and […] on a shaker.
(2) 200 μL of LB liquid culture medium and a predetermined concentration of peptide AMP-33 were added to a 96-deep-well plate. Then, 10 μL of the Staphylococcus aureus/Escherichia coli solution was inoculated (mixed well before inoculation).
as §1, with “24” for “28”, “37°” for “28°”
as §2

Staphylococcus aureus = assay: Minimum inhibitory concentration on Staphylococcus aureus (liquid culture); details: 37° C., 24 to 48 hours
Experimental: as §3, §4
Staphylococcus aureus was inoculated in LB medium with a normal oxygen concentration (21%) for 48 hours. Staphylococcus aureus clones were picked and incubated in LB medium at 37° C. with a normal oxygen concentration (21%) for an additional 48 hours. The bacterial concentration was measured and diluted to 107 CFU/mL with culture medium for use.
as §5, §6

## Example 2: LSKWLKKLGKLLAG (designated as AMP33)
[1]
  Viability of Candida albicans: 53.84 and 70.73 and 66.17
Propionibacterium acnes
  Minimum inhibitory concentration on Propionibacterium acnes: 4 µg/mL
Streptococcus mutans
  inhibition rate of Streptococcus mutans: approximately 100%
[2]; AMP-33 2 μg/mL
  NO concentration: 12.70 µM and 13.54 µM and 13.37 µM
[2]; AMP-33 4 μg/mL
  NO concentration: 12.35 µM and 12.14 µM and 11.10 µM
[2]; AMP-33 8 μg/mL
  NO concentration: 10.26 µM and 10.75 µM and 11.10 µM
[2]; AMP-33 25 μg/mL
  NO concentration: 2.82 µM and 2.89 µM and 3.83 µM
[2]; AMP-33 50 μg/mL
  NO concentration: 1.27 µM and 1.33 µM and 1.60 µM
[2]; AMP-33 100 μg/mL
  NO concentration: 1.60 µM and 1.13 µM and 1.54 µM
[3]; 1 μg/mL
  Viability of Escherichia coli: 110.11 and 91.93 and 82.94
[3]; 2 μg/mL
  Viability of Escherichia coli: 89.71 and 90.4 and 98.53
[3]; 4 μg/mL
  Viability of Escherichia coli: 86.48 and 70.83 and 70.35
[3]; 8 μg/mL
  Viability of Escherichia coli: 78.87 and 50.46 and 73.2
[3]; 25 μg/mL
  Viability of Escherichia coli: 74.99 and 38.97 and 51.39
[3]; 25 ppm
  inhibition of Escherichia coli: over 99%
Staphylococcus aureus
  Minimum inhibitory concentration on Staphylococcus aureus: 12.5 µg/mL
